Article PMC3953453 (Molecular pharmaceutics, 2012)
Like-named read-outs stand apart in the source and are kept apart here.

Assays:
[1] = tested on: β-glucuronidase in the rat intestine perfusates; experiment: hydrolysis of wogonoside in blank rat intestinal perfusate; format: in vitro ADME; conditions: for Vmax of wogonoside hydrolysis / Km: blank perfusate; for Km: read-out: Km of wogonoside hydrolysis
[2] = chemical stability of wogonoside; format: physicochemical
[3] = tested on: perfused rat intestine (duodenum, upper jejunum, terminal ileum and colon); experiment: four-site perfused rat intestinal model; format: in vivo; conditions: for effect of co-perfusion on absorption and metabolism of wogonoside: 0.1 mM saccharolactone, 20 mM gluconolactone, or antibiotics (100 units penicillin and 0.1mg streptomycin/mL)
[4] = target: T1, β-glucuronidase derived from intestinal S9 fraction (Rattus norvegicus, UniProt P06760); experiment: hydrolysis of wogonoside by rat intestine S9 fractions; format: in vitro ADME; conditions: for Km: read-out: Km of wogonoside hydrolysis
T1 sequence (P06760 23-648): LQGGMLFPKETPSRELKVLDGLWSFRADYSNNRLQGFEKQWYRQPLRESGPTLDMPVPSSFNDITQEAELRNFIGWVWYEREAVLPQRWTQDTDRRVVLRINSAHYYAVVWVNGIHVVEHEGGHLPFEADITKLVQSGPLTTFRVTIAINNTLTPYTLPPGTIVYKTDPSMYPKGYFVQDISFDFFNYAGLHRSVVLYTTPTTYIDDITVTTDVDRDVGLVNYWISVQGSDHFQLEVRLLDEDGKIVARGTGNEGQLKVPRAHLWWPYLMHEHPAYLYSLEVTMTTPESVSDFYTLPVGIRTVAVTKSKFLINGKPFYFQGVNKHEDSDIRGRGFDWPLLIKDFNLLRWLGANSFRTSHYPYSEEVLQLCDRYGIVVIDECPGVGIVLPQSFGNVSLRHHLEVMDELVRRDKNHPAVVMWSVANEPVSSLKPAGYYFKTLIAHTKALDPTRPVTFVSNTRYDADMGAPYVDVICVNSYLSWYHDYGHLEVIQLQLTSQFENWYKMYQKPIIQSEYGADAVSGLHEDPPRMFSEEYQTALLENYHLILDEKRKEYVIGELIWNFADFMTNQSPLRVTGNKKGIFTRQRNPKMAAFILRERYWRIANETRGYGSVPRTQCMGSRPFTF

[5] = tested on: β-glucuronidase in intestinal perfusate; experiment: biological stability in blank intestinal perfusate; conditions: for effect on hydrolysis of wogonoside in blank intestinal perfusate: wogonoside 20 μM, 0.1 or 4.4 mM saccharolactone, 20 mM gluconolactone
[6] = stability in diluted bile solution; format: in vitro ADME, rat; conditions: 20 μM, 4-fold diluted bile solution, 37°C
[7] = tested on: β-glucuronidase of microbial enzymatic extract (rat feces); experiment: hydrolysis of wogonoside by microbial enzymatic extract from rat feces; format: in vitro ADME
[8] = cited from earlier work

COc1c(O[C@@H]2O[C@H](C(=O)O)[C@@H](O)[C@H](O)[C@H]2O)cc(O)c2c(=O)cc(-c3ccccc3)oc12 [wogonoside, wogonin-7-O-glucuronide]
maximal hydrolysis rate ([1]; blank jejunal perfusate, pH 4.5, wogonoside 20μM): 1.559 ± 0.008 nmol/min/mg | Vmax of wogonoside hydrolysis ([1]; Col 60-90min): 0.15 nmol/min/mg | Vmax of wogonoside hydrolysis ([1]; Duo 60-90min): 0.15 nmol/min/mg | Vmax of wogonoside hydrolysis ([1]; Ile 60-90min): 0.85 nmol/min/mg | Vmax of wogonoside hydrolysis ([1]; Ile 120-150min): 0.30 nmol/min/mg | Vmax of wogonoside hydrolysis ([1]; Jej 0-30min): 1.84 nmol/min/mg | Vmax of wogonoside hydrolysis ([1]; Jej 30-60min): 0.93 nmol/min/mg | Vmax of wogonoside hydrolysis ([1]; Jej 60-90min): 0.47 nmol/min/mg | Vmax of wogonoside hydrolysis ([1]; Jej 90-120min): 0.37 nmol/min/mg | Vmax of wogonoside hydrolysis ([1]; Jej 120-150min): 0.18 nmol/min/mg | Km ([1]; Col 60-90min): 19.7 µM | Km ([1]; Duo 60-90min): 19.9 µM | Km ([1]; Ile 60-90min): 6.33 µM | Km ([1]; Ile 120-150min): 6.96 µM | Km ([1]; Jej 0-30min): 19.8 µM | Km ([1]; Jej 30-60min): 15.8 µM | Km ([1]; Jej 60-90min): 18.7 µM | Km ([1]; Jej 90-120min): 17 µM | Km ([1]; Jej 120-150min): 25.5 µM | chemical stability ([2]; pH 5.5, pH 6.5 and pH 7.4, 37°C): chemically stable | recovery (chemical stability) ([2]; pH 5.5, pH 6.5 and pH 7.4, 8 h incubation at 37°C): 104%-106% | metabolite found in perfusate (interconversion) ([3]; 5 μM and 20 μM perfused): significant amounts of wogonin were recovered in the wogonoside perfusate | intestinal absorption ([3]; 5 μM and 20 μM, four segments): slower in every intestine regions when compared to wogonin | Vmax of wogonoside hydrolysis ([4]; Duo S9 fraction): 2.06 nmol/min/mg | Vmax of wogonoside hydrolysis ([4]; Ile S9 fraction): 0.26 nmol/min/mg | Vmax of wogonoside hydrolysis ([4]; Jeu S9 fraction): 1.68 nmol/min/mg | maximal hydrolysis rate ([4]; jejunal S9 fraction, pH 4.5, wogonoside 20μM): 5.195 ± 0.103 nmol/min/mg | optimal pH of glucuronidase activity ([4]; jejunal S9 fraction, wogonoside 20μM, 37°C, 30 min): 4.5 | Km ([4]; Duo S9 fraction): 30 µM | Km ([4]; Ile S9 fraction): 25.7 µM | Km ([4]; Jeu S9 fraction): 28.2 µM | stability in blank intestinal perfusate ([5]; blank perfusate of duodenum, jejunum, ileum, colon, 37°C, up to 8 h): unstable | stability in blank intestinal perfusate after removal of bacteria ([5]; centrifugation (13,000 rpm, 30 min) and aseptic filtration, 20 μM): did not improve stability of wogonoside | stability in bile [6]: fairly stable | Vmax of wogonoside hydrolysis ([7]; Microflora enzymatic extract): 49.64 nmol/min/mg | highest hydrolysis rate ([7]; fecal extract, pH 5.5, wogonoside 20μM): 249.211 ± 0.178 nmol/min/mg | Km ([7]; read-out: Km of wogonoside hydrolysis, Microflora enzymatic extract): 7.7 µM

Oc1ccc(/C=C/c2cc(O)cc(O)c2)cc1 [resveratrol]
bioavailability [8]: < 5%

O=C1O[C@H](CO)[C@@H](O)[C@H](O)[C@H]1O [gluconolactone, reference compound]
effect of co-perfusion on absorption and metabolism of wogonoside [3]: did not affect its absorption | effect on hydrolysis of wogonoside in blank intestinal perfusate [5]: did not inhibit the hydrolysis of wogonoside

O=C(O)[C@@H](O)[C@H]1OC(=O)[C@H](O)[C@H]1O [saccharolactone]
effect of co-perfusion on absorption and metabolism of wogonoside [3]: affected both absorption and metabolism of wogonoside | effect of co-perfusion on absorption and metabolism of wogonin ([3]; co-perfused with 0.1 mM saccharolactone): did not affect the absorption or metabolism of wogonin | effect on hydrolysis of wogonoside in blank intestinal perfusate [5]: inhibit the hydrolysis of wogonoside in all perfusate
